Results reported in publication PMC12431657, “Discovery and mechanistic insights of dibenzoylmethane as a broad spectrum inhibitor of coronavirus” (PLOS Pathogens, 2025).
Several values for one entry are separate records, joined by “and”; a condition that tells them apart may be missing. Equal values may be shown once.

Tests used:
[1] = 1% DBM in the diet, mice; cited from earlier work
caspase-6 = caspase-6 (Homo sapiens, UniProt P55212); type: cell-based; settings: STS-treated cells
HCoV-OC43 = test: In vivo efficacy of DBM against HCoV-OC43 in suckling mice (body weight, viral RNA copies, immunofluorescence, H&E); design: species or system BALB/c suckling mice; settings: for Viral RNA copies (log scale), Brain / Viral RNA copies (log scale), Kidney / Viral RNA copies (log scale), Lung / Viral RNA copies (log scale), Spinal Cord: one value per mouse
Method: Next, we characterized the therapeutic efficacy of the DBM in vivo. In this experiment, randomized 5–6-day-old suckling BALB/c mice were orally treated with DBM at concentrations of 500, 200, and 100 mpk 2 hours after being intranasally challenged with HCoV-OC43. Menstruum and VV116 were used as negative and positive controls, respectively. All the mice were sacrificed on Day 5 for organ and sample collection (Fig 4A). The body weight changes of the mice were continuously monitored during the trial. Infection with HCoV-OC43 led to body weight loss in the vehicle-treated mice on Day 5 (Fig 4B). […] The number of viral RNA copies from the brain, spinal cord, lungs, and kidneys were analysed via qRT-PCR, which targeted the HCoV-OC43 nucleocapsid gene sequence. On Day 5, the number of viral RNA copies in the vehicle-treated group reached approximately 10^12 copies in the brain, 10^9 copies in the spinal cord, 10^8 copies in the lungs, and 10^6 copies in the kidney (Fig 4C). In the mice treated with DBM at 500 mpk, the number of viral RNA copies within these organs and tissues was reduced by 1–3 logs compared with the vehicle-treated group. […] Sections of mouse brains, spinal cords, lungs, and kidneys were subjected to immunofluorescence staining with antibodies targeting HCoV-OC43 nucleocapsid proteins.
Fig 4 In vivo antiviral efficacy of DBM in 5-day-old BALB/c suckling mice infected with HCoV-OC43. A) Schematic of the experimental design for evaluating DBM in suckling mice. Each group consisted of 5-6 suckling mice. The schematic was created by the authors using Adobe Illustrator 2022. B) Body weight changes of mice during the experiment. Body weights were recorded daily and all mice were euthanised on the fifth day after infection. C) Viral RNA copies in the brains, spinal cords, lungs, and kidneys of mice collected on Day 5. After grinding and centrifuging the samples with DMEM, viral copies from the supernatants were tested by qRT-PCR. D) Viral titres in homogenised organs and tissues collected from mice on Day 5. E) Immunofluorescence staining of brain and lung sections from mice treated with different regimens. HCoV-OC43 nucleocapsid proteins were detected by immunofluorescence (green). Cell nuclei were stained with DAPI (blue). Data were statistically analyzed with Student’s T test. *: p ≤ 0.05, **: p ≤ 0.01, ***: p ≤ 0.001, ****: p ≤ 0.0001; ns, not significant. The experiments were repeated three times independently with similar results. […] No numeric values are printed in any panel, and nothing was read off the bars, points or curves.
BALB/c mice were maintained and bred in a specific-pathogen-free (SPF) environment at the Laboratory Animal Center of Wuhan Institute of Virology, CAS. Pregnant mice with the same expected delivery date were acclimated in individually ventilated cages under standard conditions within an SPF environment. Food and water were available ad libitum. The mice were anaesthetized by isoflurane inhalation before any operation that may have caused potential discomfort. Before the experiment, suckling mice were randomly allocated into 6 distinct groups, namely, the healthy group, the vehicle group, the groups receiving DBM at 500 mg/kg (mpk) orally quaque die (QD), 200 mpk QD, and 100 mpk QD, and the group receiving VV116 at 25 mpk orally QD. Each group was comprised of 5–6 suckling mice. On the initiation day (Day 0) of the experiment, 5–6-day-old BALB/c suckling mice were intranasally infected with 1 × 10^4 TCID50 of HCoV-OC43. Two hours postinoculation, the mice were orally treated with either a placebo or varying doses of the drugs on the basis of their respective groupings as outlined earlier. This oral treatment regimen was continued for several days. The body weight changes of the mice were monitored daily. On Day 5, all the mice in each group were sacrificed for virological and histopathological analyses. […]

enterovirus EV71 = type: cell-based

caspase-6, sequence (P55212 194-293): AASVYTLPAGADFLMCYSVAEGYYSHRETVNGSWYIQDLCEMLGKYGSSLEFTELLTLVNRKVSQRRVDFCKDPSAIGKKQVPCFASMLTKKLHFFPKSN
caspase-6, sequence (P55212 24-179): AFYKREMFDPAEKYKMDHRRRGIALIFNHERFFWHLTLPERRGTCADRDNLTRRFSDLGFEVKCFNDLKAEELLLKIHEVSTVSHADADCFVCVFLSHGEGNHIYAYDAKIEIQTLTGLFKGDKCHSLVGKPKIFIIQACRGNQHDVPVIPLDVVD

Compound: O=C(CC(=O)c1ccccc1)c1ccccc1 [DBM, dibenzoylmethane]
- safety of feeding in the diet [1]: safe
- levels of cleaved HCoV-OC43 and SARS-CoV-2 nucleocapsid proteins (caspase-6): significantly reduces
- Viral RNA copies (log scale), Brain (HCoV-OC43; DBM 100 mpk oral QD, Day 5): 10.75 and 11.25 and 9.46 and 11.43 and 10.91 and 11.34
- Viral RNA copies (log scale), Kidney (HCoV-OC43; DBM 100 mpk oral QD, Day 5): 4.46 and 4.97 and 5.51 and 4.16 and 5.82 and 6.00
- Viral RNA copies (log scale), Lung (HCoV-OC43; DBM 100 mpk oral QD, Day 5): 5.86 and 6.10 and 6.32 and 5.21 and 6.78 and 7.01
- Viral RNA copies (log scale), Spinal Cord (HCoV-OC43; DBM 100 mpk oral QD, Day 5): 6.20 and 7.58 and 5.38 and 6.52 and 6.60 and 6.93
- Viral RNA copies (log scale), Brain (HCoV-OC43; DBM 200 mpk oral QD, Day 5): 11.00 and 7.97 and 8.87 and 10.9 and 11.19
- Viral RNA copies (log scale), Kidney (HCoV-OC43; DBM 200 mpk oral QD, Day 5): 3.29 and 5.31 and 4.03 and 3.52 and 4.72
- Viral RNA copies (log scale), Lung (HCoV-OC43; DBM 200 mpk oral QD, Day 5): 5.84 and 6.05 and 5.32 and 4.74 and 6.24
- Viral RNA copies (log scale), Spinal Cord (HCoV-OC43; DBM 200 mpk oral QD, Day 5): 7.21 and 4.77 and 4.18 and 5.72 and 5.07
- weight loss during the experiment (HCoV-OC43; DBM 500, 200, 100 mpk, VV116 25 mpk): did not experience weight loss
- Viral RNA copies (log scale), Brain (HCoV-OC43; DBM 500 mpk oral QD, Day 5): 7.30 and 7.20 and 10.02 and 9.11
- Viral RNA copies (log scale), Kidney (HCoV-OC43; DBM 500 mpk oral QD, Day 5): 5.15 and 4.76 and 4.30 and 4.17
- Viral RNA copies (log scale), Lung (HCoV-OC43; DBM 500 mpk oral QD, Day 5): 6.62 and 5.77 and 7.8 and 5.49
- Viral RNA copies (log scale), Spinal Cord (HCoV-OC43; DBM 500 mpk oral QD, Day 5): 7.86 and 7.12 and 7.13 and 6.92
- reduction of viral RNA copies in organs and tissues compared with the vehicle-treated group (HCoV-OC43; DBM 500 mpk, Day 5, brain, spinal cord, lungs, kidneys): 1–3 logs
- Body weight (Fig4B) (HCoV-OC43; Diben-100mpk, day 0, individual mice, 100 mg/kg): 106.0 and 99.6 and 102.4 and 92.2 and 88.6 and 111.2
- Body weight (Fig4B) (HCoV-OC43; Diben-100mpk, day 1, individual mice, 100 mg/kg): 104.0 and 113.7 and 124.8 and 125.0 and 120.9 and 107.3
- Body weight (Fig4B) (HCoV-OC43; Diben-100mpk, day 2, individual mice, 100 mg/kg): 129.4 and 142.0 and 134.3 and 116.8 and 125.0 and 145.3
- Body weight (Fig4B) (HCoV-OC43; Diben-100mpk, day 3, individual mice, 100 mg/kg): 151.0 and 158.2 and 143.3 and 162.5 and 135.0 and 139.2
- Body weight (Fig4B) (HCoV-OC43; Diben-100mpk, day 4, individual mice, 100 mg/kg): 155.1 and 164.8 and 182.5 and 163.5 and 153.3 and 179.2
- Body weight (Fig4B) (HCoV-OC43; Diben-100mpk, day 5, individual mice, 100 mg/kg): 154.0 and 147.9 and 188.2 and 194.1
- Body weight (Fig4B) (HCoV-OC43; Diben-200mpk, day 0, individual mice, 200 mg/kg): 111.2 and 88.7 and 105.9 and 107.7 and 103.2 and 83.4
- Body weight (Fig4B) (HCoV-OC43; Diben-200mpk, day 1, individual mice, 200 mg/kg): 125.7 and 104.5 and 114.6 and 120.1 and 114.8 and 89.2
- Body weight (Fig4B) (HCoV-OC43; Diben-200mpk, day 2, individual mice, 200 mg/kg): 114.8 and 130.4 and 137.3 and 125.5 and 125.0 and 98.5
- Body weight (Fig4B) (HCoV-OC43; Diben-200mpk, day 3, individual mice, 200 mg/kg): 132.4 and 107.4 and 150.4 and 128.4 and 109.9 and 143.8
- Body weight (Fig4B) (HCoV-OC43; Diben-200mpk, day 4, individual mice, 200 mg/kg): 124.4 and 149.1 and 155.3 and 166.7 and 150.7 and DIED
- Body weight (Fig4B) (HCoV-OC43; Diben-200mpk, day 5, individual mice, 200 mg/kg): 132.2 and 156.0 and 162.7 and 162.5 and 153.8
- Body weight (Fig4B) (HCoV-OC43; Diben-500mpk, day 0, individual mice, 500 mg/kg): 97.8 (2×) and 95.2 (2×) and 111.0 and 103.1
- Body weight (Fig4B) (HCoV-OC43; Diben-500mpk, day 1, individual mice, 500 mg/kg): 118.9 and 116.3 and 111.0 and 105.7 (2×) and 124.2
- Body weight (Fig4B) (HCoV-OC43; Diben-500mpk, day 2, individual mice, 500 mg/kg): 145.4 and 111.0 and 129.5 (2×) and 97.8 and 116.3
- Body weight (Fig4B) (HCoV-OC43; Diben-500mpk, day 3, individual mice, 500 mg/kg): 118.9 and 169.2 and 132.2 and 108.4 and 102.6 and 148.0
- Body weight (Fig4B) (HCoV-OC43; Diben-500mpk, day 4, individual mice, 500 mg/kg): 150.7 and DIED (2×) and 187.7 and 103.1 and 161.2
- Body weight (Fig4B) (HCoV-OC43; Diben-500mpk, day 5, individual mice, 500 mg/kg): 100.4
- viral loads by immunofluorescence staining of organ sections (HCoV-OC43; HCoV-OC43 nucleocapsid protein): reduced the viral loads
- damage caused by viral infection in brain and lung sections (H&E) (HCoV-OC43; oral DBM): significantly reduced the damage
- antiviral activity against EV71 (enterovirus EV71): no antiviral activity
